Reference: ChEMBL document CHEMBL5500383, “Recent advances and future directions on small molecule VEGFR inhibitors in oncological conditions” (Eur J Med Chem, 2024)

Columns and labels:
HepG2 [1] = assay: Antiproliferative activity against human HepG2 cells assessed as cell growth inhibition incubated for 24 hrs by MTT assay; assay type: functional, cell-based; details: HepG2, 24 h
PC-3 [2] = assay: Antiproliferative activity against human PC-3 cells assessed as cell growth inhibition incubated for 24 hrs by MTT assay; assay type: functional, cell-based; details: PC-3, 24 h
[3] = (§1) Antiproliferative activity against human WI-38 cells assessed as cell growth inhibition incubated for 24 hrs by MTT assay; assay type: toxicity, cell-based; details: human, WI-38 cells
MCF7 [4] = assay: Cytotoxicity against human MCF7 cells assessed as reduction in cell viability by SRB assay; assay type: functional, cell-based
HepG2 [5] = assay: Cytotoxicity against human HepG2 cells assessed as reduction in cell viability by SRB assay; assay type: functional, cell-based
MCF7 [6] = assay: Antiproliferative activity against human MCF7 cells assessed as reduction in cell growth by MTT assay; assay type: functional, cell-based
HCT-116 [7] = assay: Cytotoxicity against human HCT-116 cells assessed as reduction in cell viability by SRB assay; assay type: functional, cell-based
[8] = molecular target: T1, Vascular endothelial growth factor receptor 2 (Homo sapiens, UniProt P35968); assay: Inhibition of human VEGFR2 by discoverX kinome scan assay
T1 sequence (P35968 whole entry): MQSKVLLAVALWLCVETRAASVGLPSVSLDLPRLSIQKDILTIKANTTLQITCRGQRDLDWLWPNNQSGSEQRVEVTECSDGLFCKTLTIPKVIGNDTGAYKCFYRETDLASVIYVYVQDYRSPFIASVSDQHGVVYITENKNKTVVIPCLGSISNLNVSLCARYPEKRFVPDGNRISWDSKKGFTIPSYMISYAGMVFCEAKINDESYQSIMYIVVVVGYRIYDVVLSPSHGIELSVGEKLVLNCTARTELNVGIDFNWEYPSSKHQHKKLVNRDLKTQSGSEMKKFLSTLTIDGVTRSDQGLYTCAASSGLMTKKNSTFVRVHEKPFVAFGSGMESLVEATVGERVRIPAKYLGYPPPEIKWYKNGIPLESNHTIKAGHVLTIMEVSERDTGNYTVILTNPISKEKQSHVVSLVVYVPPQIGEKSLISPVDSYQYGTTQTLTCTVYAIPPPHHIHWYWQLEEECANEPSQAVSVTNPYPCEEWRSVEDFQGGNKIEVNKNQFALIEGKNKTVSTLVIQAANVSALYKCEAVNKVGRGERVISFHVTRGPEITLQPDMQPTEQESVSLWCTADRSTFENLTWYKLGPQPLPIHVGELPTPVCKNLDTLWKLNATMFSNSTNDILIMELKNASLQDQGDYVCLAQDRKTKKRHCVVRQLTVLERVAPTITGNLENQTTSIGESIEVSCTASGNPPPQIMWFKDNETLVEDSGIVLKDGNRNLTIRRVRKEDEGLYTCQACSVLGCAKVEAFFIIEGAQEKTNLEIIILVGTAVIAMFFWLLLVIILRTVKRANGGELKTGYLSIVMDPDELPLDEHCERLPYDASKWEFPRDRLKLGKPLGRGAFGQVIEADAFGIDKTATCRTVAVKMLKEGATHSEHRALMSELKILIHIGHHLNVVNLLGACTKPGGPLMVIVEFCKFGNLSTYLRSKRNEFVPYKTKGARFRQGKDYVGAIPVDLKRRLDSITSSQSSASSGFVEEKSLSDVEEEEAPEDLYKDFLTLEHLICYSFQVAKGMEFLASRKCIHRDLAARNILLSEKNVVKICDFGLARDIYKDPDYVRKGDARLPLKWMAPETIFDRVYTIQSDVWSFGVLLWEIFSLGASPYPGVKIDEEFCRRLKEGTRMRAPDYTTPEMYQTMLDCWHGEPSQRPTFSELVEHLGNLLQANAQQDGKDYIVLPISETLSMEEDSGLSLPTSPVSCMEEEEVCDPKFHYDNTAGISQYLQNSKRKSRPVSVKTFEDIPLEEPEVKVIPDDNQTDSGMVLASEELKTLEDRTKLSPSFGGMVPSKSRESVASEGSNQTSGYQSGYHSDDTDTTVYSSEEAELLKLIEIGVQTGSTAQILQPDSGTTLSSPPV

HepG2 [9] = assay: Antiproliferative activity against human HepG2 cells assessed as reduction in cell growth by MTT assay; assay type: functional, cell-based
HCT-116 [10] = assay: Antiproliferative activity against human HCT-116 cells assessed as reduction in cell growth by MTT assay; assay type: functional, cell-based
[11] = molecular target: T1, Vascular endothelial growth factor receptor 2; assay: Inhibition of VEGFR2 (unknown origin) using Poly-(Glu,Tyr 4:1) peptide as substrate incubated for 1 hr by ELISA method
HepG2 [12] = assay: Cytotoxicity against human HepG2 cells assessed as reduction in cell growth incubated for 48 hrs by MTT assay; assay type: functional, cell-based; details: HepG2, 48 h
MCF7 [13] = assay: Cytotoxicity against human MCF7 cells assessed as reduction in cell viability incubated for 48 hrs by MTT assay; assay type: functional, cell-based; details: MCF7, 48 h
HCT-116 [14] = assay: Cytotoxicity against human HCT-116 cells assessed as reduction in cell growth incubated for 48 hrs by MTT assay; assay type: functional, cell-based; details: HCT-116, 48 h
[15] = molecular target: T1, Vascular endothelial growth factor receptor 2; assay: Inhibition of GST-tagged human recombinant VEGFR2
WI-38 = assay: as §1; assay type: toxicity, cell-based; details: wi-38
[16] = molecular target: RAC-alpha serine/threonine-protein kinase (Homo sapiens, UniProt P31749); assay: Inhibition of AKT1 (unknown origin)
Sequence of RAC-alpha serine/threonine-protein kinase (P31749 whole entry): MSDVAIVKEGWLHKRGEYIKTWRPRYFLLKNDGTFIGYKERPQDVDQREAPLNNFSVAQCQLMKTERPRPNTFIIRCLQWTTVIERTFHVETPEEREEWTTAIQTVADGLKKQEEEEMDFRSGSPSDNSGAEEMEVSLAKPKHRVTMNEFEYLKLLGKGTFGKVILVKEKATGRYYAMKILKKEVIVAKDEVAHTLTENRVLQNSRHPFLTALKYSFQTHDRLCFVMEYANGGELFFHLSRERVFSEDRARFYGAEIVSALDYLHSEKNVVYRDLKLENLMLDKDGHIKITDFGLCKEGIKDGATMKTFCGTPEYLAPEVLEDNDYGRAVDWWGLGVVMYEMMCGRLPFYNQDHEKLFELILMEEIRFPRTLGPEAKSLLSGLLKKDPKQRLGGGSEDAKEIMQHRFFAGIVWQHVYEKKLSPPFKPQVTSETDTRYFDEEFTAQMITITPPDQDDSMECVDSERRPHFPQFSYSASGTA

MCF7 [17] = assay: Antiproliferative activity against human MCF7 cells assessed as reduction in cell viability; assay type: functional, cell-based
[18] = molecular target: RAF proto-oncogene serine/threonine-protein kinase (Homo sapiens, UniProt P04049); assay: Inhibition of C-RAF (unknown origin)
Sequence of RAF proto-oncogene serine/threonine-protein kinase (P04049 whole entry): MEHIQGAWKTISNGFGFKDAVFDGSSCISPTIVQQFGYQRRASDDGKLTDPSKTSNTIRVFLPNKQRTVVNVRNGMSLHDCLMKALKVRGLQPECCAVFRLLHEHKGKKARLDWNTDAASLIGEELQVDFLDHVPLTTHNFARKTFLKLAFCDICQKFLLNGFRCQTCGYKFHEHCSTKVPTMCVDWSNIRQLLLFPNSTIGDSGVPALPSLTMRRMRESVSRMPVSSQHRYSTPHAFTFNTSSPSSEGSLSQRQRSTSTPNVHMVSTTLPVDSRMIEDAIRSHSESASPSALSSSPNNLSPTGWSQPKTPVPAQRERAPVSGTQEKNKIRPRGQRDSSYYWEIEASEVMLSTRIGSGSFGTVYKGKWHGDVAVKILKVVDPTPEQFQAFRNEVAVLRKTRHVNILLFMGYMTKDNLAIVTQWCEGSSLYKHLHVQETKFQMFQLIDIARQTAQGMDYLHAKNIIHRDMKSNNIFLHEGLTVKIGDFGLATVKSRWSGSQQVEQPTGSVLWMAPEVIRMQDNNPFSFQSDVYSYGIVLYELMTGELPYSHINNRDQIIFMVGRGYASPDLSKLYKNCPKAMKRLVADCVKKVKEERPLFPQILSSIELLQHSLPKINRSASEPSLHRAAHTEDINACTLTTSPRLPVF

[19] = Inhibition of VEGFR (unknown origin); parameters: species or system Homo sapiens
HCT-116 [20] = assay: Antiproliferative activity against human HCT-116 cells assessed as reduction in cell viability measured after 72 hrs by MTT assay; assay type: functional, cell-based; details: HCT-116, 72 h
PC-3 [21] = assay: Antiproliferative activity against human PC-3 cells; assay type: functional, cell-based
[22] = molecular target: Serine/threonine-protein kinase B-raf (Homo sapiens, UniProt P15056, V600E); assay: Inhibition of BRAF V600E mutant (unknown origin)
Sequence of Serine/threonine-protein kinase B-raf (Homo sapiens, UniProt P15056, V600E) (P15056 2-766 V600E limits assumed): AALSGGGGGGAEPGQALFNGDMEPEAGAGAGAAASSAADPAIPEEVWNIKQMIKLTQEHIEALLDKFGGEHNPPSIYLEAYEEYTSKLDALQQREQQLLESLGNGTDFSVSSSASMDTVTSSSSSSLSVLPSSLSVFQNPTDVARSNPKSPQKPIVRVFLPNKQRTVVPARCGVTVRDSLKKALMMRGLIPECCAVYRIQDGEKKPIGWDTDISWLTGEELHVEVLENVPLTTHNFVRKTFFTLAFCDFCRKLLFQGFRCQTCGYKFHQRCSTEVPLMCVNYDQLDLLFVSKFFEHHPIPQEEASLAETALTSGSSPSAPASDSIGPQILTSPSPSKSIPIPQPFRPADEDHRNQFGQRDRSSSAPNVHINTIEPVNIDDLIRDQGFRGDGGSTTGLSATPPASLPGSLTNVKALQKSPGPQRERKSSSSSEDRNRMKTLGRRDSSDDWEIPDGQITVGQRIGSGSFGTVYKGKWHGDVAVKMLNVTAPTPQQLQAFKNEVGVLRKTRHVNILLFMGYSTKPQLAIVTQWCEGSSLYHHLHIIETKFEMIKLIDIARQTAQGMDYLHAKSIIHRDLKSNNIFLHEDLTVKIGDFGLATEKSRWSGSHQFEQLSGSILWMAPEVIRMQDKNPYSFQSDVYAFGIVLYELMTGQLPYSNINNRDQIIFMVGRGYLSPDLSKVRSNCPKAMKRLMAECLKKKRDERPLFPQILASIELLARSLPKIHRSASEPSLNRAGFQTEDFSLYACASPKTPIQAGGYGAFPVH

A-375 = assay: Antiproliferative activity against human A-375 cells assessed as reduction in cell viability measured after 72 hrs by MTT assay; assay type: functional, cell-based; details: A-375, 72 h
MIA PaCa-2 = assay: Antiproliferative activity against human MIA PaCa-2 cells assessed as inhibition of cell growth incubated for 48 hrs by MTS assay; assay type: functional, cell-based; details: MIA PaCa-2, 48 h
A549 = assay: Antiproliferative activity against human A549 cells; assay type: functional, cell-based
HepG2 [23] = assay: Antiproliferative activity against human HepG2 cells assessed as reduction in cell growth after 72 hrs by MTT assay; assay type: functional, cell-based; details: HepG2, 72 h
MCF7 [24] = assay: Antiproliferative activity against human MCF7 cells assessed as reduction in cell viability measured after 72 hrs by MTT assay; assay type: functional, cell-based; details: MCF7, 72 h
[25] = molecular target: Serine/threonine-protein kinase B-raf (Homo sapiens, UniProt P15056); assay: Inhibition of wild type BRAF (unknown origin)
Sequence of Serine/threonine-protein kinase B-raf (Homo sapiens, UniProt P15056) (P15056 whole entry): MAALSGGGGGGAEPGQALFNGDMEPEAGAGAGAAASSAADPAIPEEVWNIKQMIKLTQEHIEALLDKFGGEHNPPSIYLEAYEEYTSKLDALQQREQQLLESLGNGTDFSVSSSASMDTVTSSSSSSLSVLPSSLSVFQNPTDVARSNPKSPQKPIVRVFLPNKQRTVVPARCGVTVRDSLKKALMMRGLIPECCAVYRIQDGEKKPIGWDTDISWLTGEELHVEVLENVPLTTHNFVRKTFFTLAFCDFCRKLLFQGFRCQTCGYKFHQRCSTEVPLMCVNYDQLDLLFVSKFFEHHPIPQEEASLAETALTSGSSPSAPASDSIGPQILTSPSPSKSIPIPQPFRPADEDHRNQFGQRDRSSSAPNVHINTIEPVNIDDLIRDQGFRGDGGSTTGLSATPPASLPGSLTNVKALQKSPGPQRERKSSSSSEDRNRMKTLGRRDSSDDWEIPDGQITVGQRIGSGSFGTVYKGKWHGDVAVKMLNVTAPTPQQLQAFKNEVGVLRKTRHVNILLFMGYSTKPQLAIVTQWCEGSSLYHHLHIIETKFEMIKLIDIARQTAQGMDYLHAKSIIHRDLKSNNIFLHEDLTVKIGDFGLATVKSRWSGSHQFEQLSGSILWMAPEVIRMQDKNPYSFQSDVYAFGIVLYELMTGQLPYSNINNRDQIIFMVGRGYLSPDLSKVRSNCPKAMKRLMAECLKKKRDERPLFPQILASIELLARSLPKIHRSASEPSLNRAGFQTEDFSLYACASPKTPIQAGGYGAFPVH

[26] = molecular target: Serine/threonine-protein kinase pim-1 (Homo sapiens, UniProt P11309); assay: Inhibition of PIM-1 (unknown origin)
Sequence of Serine/threonine-protein kinase pim-1 (P11309 whole entry): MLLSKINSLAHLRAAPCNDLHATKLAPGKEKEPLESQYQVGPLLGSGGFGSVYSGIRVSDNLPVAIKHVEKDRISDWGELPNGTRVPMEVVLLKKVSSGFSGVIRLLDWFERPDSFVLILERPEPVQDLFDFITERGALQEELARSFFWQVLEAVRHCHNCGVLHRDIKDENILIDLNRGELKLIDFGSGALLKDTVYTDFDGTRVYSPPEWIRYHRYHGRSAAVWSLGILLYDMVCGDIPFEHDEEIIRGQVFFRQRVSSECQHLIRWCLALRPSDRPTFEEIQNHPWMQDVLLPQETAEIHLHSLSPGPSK

MCF7 [27] = assay: Antiproliferative activity against human MCF7 cells assessed as inhibition of cell growth; assay type: functional, cell-based
PC-3 [28] = assay: Antiproliferative activity against human PC-3 cells assessed as inhibition of cell growth; assay type: functional, cell-based
[29] = molecular target: T1, Vascular endothelial growth factor receptor 2; assay: Inhibition of VEGFR2 (unknown origin)
HepG2 [30] = assay: Antiproliferative activity against human HepG2 cells assessed as reduction in cell growth; assay type: functional, cell-based
Caco-2 = assay: Antiproliferative activity against human Caco-2 cells assessed as reduction in cell growth; assay type: functional, cell-based
U-87 MG = assay: Antiproliferative activity against human U87 cells assessed as inhibition of cell viability incubated for 72 hrs by MTT assay; assay type: functional, cell-based, U-87MG ATCC
EA.hy 926 = assay: Antiproliferative activity against human EA.hy 926 cells assessed as reduction in cell viability incubated for 48 hrs by MTT assay; assay type: functional, cell-based; details: EA.hy 926, 48 h
HCC827 = assay: Growth inhibition of human HCC827 cells; assay type: functional
PC-9 = assay: Growth inhibition of human PC-9 cells; assay type: functional
HepG2 [31] = assay: Antiproliferative activity against human HepG2 cells assessed as reduction in cell growth incubated for 24 hrs by MTT assay; assay type: functional, cell-based; details: HepG2, 24 h
[32] = molecular target: T1, Vascular endothelial growth factor receptor 2; assay: Inhibition of human VEGFR-2 by ELISA method
MCF7 [33] = assay: Antiproliferative activity against human MCF7 cells assessed as reduction in cell growth incubated for 24 hrs by MTT assay; assay type: functional, cell-based; details: MCF7, 24 h
HCT-116 [34] = assay: Antiproliferative activity against human HCT-116 cells assessed as reduction in cell growth incubated for 24 hrs by MTT assay; assay type: functional, cell-based; details: HCT-116, 24 h
[35] = molecular target: T1, Vascular endothelial growth factor receptor 2; assay: Inhibition of VEGFR2 (unknown origin) incubated for 1 hr in presence of ATP by ELISA method
SF-539 = assay: Antiproliferative activity against human SF-539 cells assessed as inhibition of cell growth at 10 uM after 48 hrs by sulforhodamine B assay relative to control; assay type: functional; parameters: scale not given: the % may be the effect or the level left

CCOC(=O)c1c(NC(=S)Nc2cc(C)ccc2Cl)sc2c1N(C)CC2
IC50 (HepG2 [1]): 3.02 µM
IC50 (PC-3 [2]): 3120 nM
IC50 at 24 h [3]: 35.3 µM

O=C(N/N=C/c1ccc(Cl)cc1)c1ccc(Nc2ncnc3sc4c(c23)CCCC4)cc1
IC50 (MCF7 [4]): 10.3 µM
IC50 (HepG2 [5]): 4.1 µM
IC50 (MCF7 [6]): 10.3 µM
IC50 (HCT-116 [7]): 2800 nM
IC50 [8]: 230 nM
IC50 (HepG2 [9]): 4.1 µM
IC50 (HCT-116 [10]): 2800 nM

Cc1cc(C)nc(NS(=O)(=O)c2ccc(/N=N/c3ccc(C4=NCC(=O)N(C)c5ccc(Cl)cc54)cc3)cc2)n1
IC50 [11]: 0.1 nM
IC50 (HepG2 [12]): 8.98 µM
IC50 (MCF7 [13]): 6.99 µM
IC50 (HCT-116 [14]): 7.77 µM

CN1CCC2=C1C1C(=O)NC(c3ccccc3)=NC1S2 (stereo not given)
IC50 (HepG2 [1]): 3.11 µM
IC50 [15]: 126 nM
IC50 (PC-3 [2]): 2150 nM
IC50 (WI-38): 12.5 µM
IC50 [16]: 6.96 µM

COCCOCCOCCOCCOCCOC(=O)c1cc(C(=O)OCCOCCOCCOCCOCCOC)cc(-n2cc(Cn3ncc4ccccc4c3=O)nn2)c1
IC50 (MCF7 [17]): 8.84 µM

O=C(CSc1nc2ccccc2c(=O)n1-c1ccc(Cl)cc1)Nc1ccc(-c2nc3ccccc3[nH]2)cc1
IC50 [18]: 100 nM
IC50 [19]: > 100 µM
IC50 (HCT-116 [20]): 100 nM
IC50 (PC-3 [21]): 100 nM
IC50 [22]: 2 nM
IC50 (A-375): 100 nM
IC50 (MIA PaCa-2): 100 nM
IC50 (A549): 100 nM
IC50 (HepG2 [23]): 100 nM
IC50 (MCF7 [24]): 100 nM
IC50 [25]: 20 nM

COc1ccc(-c2cc(-c3ccc(OC)c(OC)c3)c3c(N)c(C(=O)c4ccc(C)cc4)sc3n2)cc1OC
IC50 [26]: 7.95 µM
IC50 (MCF7 [27]): 10 nM
IC50 (PC-3 [28]): 10 nM
IC50 (HepG2 [1]): 0.006 µM
IC50 (PC-3 [2]): 19 nM
IC50 [29]: 5.87 µM
IC50 (HepG2 [30]): 6 nM
IC50 (Caco-2): 20 nM

O=C(Nc1ccc(Oc2ccnc(C(=O)NCCCCNC(=O)C3CC4C=CC3C4)c2)cc1)Nc1ccc(Cl)c(C(F)(F)F)c1 (stereo not given)
IC50 (U-87 MG): 63.6 µM
IC50 (EA.hy 926): 47 nM
IC50 [29]: 0.23 µM

NC(=O)CCn1cc(-c2ccc3ncnc(Nc4cc(O)c(F)cc4F)c3c2)nn1
GI50 (HCC827): 1300 nM
GI50 (PC-9): 6 µM

CCn1c(SCC(=O)Nc2ccc(/C(C)=N/O)cc2)nc2ccccc2c1=O
IC50 (HepG2 [31]): 3.97 µM
IC50 [32]: 2500 nM
IC50 (MCF7 [33]): 4.83 µM
IC50 (HCT-116 [34]): 4.58 µM

CNC(=O)c1nc(Nc2ccc(NC(=O)Nc3cccc(OC)c3)cc2)c2ccccc2n1
IC50 [35]: 40.3 µM
Activity (SF-539): 47.8%
